Experimental data taken from article PMC10353390, “Biological and Structural Analyses of New Potent Allosteric Inhibitors of HIV-1 Integrase” (Antimicrobial Agents and Chemotherapy, 2023).
Like-named read-outs stand apart in the source and are kept apart here.

Legend:
NL4-3 HIV-1 strain = test: Multiple-round infection assay in MT4 cells, NL4-3; format: cell-based; conditions: MT4 cells
[1] = molecular target: CCD of HIV-1 IN and IBD of LEDGF/p75 (Human immunodeficiency virus type 1 group M subtype B, UniProt P12497); test: biochemical
Description: (§2) The INLAIs were tested for the ability to inhibit the HIV-1 IN-LEDGF/p75 interaction in a homogeneous time-resolved fluorescence (HTRF) assay. Our assays used either full-length IN and LEDGF/p75 proteins or their respective minimally sufficient interaction domains: the CCD of HIV-1 IN and the IBD of LEDGF/p75 (Table 1).
(§3) HTRF-based CCD-IBD interaction, IN-LEDGF/p75 interaction and IN multimerization assays were performed as described previously ([12]).

[2] = tested on: NL4-3 HIV-1 with INLAI-selected IN single point mutations; format: cell-based
[3] = tested on: VSV-G-pseudotyped NL4-3Δenv-luc; test: microbe, parasite or virus in culture; format: cell-based, HIV-1
HXB2 HIV-1 strain = test: Multiple-round infection assay in MT4 cells, HXB2; format: cell-based; conditions: Human immunodeficiency virus 1, HXB2; multiple-round infection, MT4 cells; mean ± SD, n > 5; read-out: EC50 HXB2
Procedure, shortened: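 Antiviral read-out was CellTiter-Glo luminescent viability of exponentially growing MT4 cells (10^6/mL). Cells were exposed to HIV-1 for 2 h at an MOI of 0.001 while compound was present at varying concentrations.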

[4] = tested on: primary HIV-1 isolates with polymorphisms at IN positions 124 and 125; test: Multiple-round infection of MT4 cells with primary HIV-1 isolates polymorphic at IN positions 124 and 125; format: cell-based; conditions: primary isolate
Description: Next, we evaluated the potency of the BDM-2 series of INLAIs against several primary HIV-1 isolates with polymorphisms at IN positions 124 and 125.
(§1) MT4 cells growing exponentially at the density of 10^6/mL were infected with HIV-1 strain NL4-3 at a multiplicity of infection (MOI) of 0.001 for 2 h in the presence of different concentrations of compounds, and the CellTiter-Glo luminescent reagent (Promega) was used to quantify cell viability as described previously ([12]).

[5] = Cytotoxicity assay in MT4 cells; format: cell-based; conditions: human, MT4 cells (proliferating human T-cell line), CellTiter-Glo
Description: Growth inhibition was monitored in a proliferating human T-cell line (MT4) with different concentrations of compounds, using the CellTiter-Glo luminescent reagent (Promega), as previously described ([12]).

[6] = tested on: recombinant NL4-3 viruses with polymorphisms at IN positions 124 and 125; test: Multiple-round infection of MT4 cells with recombinant NL4-3 viruses polymorphic at IN positions 124 and 125; format: cell-based, HIV-1
Description: Located on the HIV-1 IN CCD dimerization interface, the principal INLAI binding pocket overlaps with a hot spot of amino acid sequence polymorphism involving IN residues 124 and 125 ([16]). To test if the new INLAIs maintained antiviral activity against major polymorphisms, we introduced all major combinations of residues found in circulating HIV-1 strains at positions 124 and 125 into NL4-3 HIV-1 molecular clone. In total, we evaluated 15 such combinations that collectively covered 98% of all HIV-1 clade polymorphisms involving these positions ([48]). To gauge effects on the antiviral activity, we calculated the EC50 fold change (FC) relative to wild type NL4-3 HIV-1 strain that features Thr124 and Thr125 (TT; specific polymorphisms are referred to by a single letter amino acid code).
as §1

[7] = tested on: HIV-1 strains resistant to INSTIs, NRTIs, NNRTIs or PIs; format: cell-based
Procedure, shortened: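 Cell viability (CellTiter-Glo luminescence) served as read-out in MT4 cells at 10^6/mL, infected 2 h at MOI 0.001 in presence of graded compound concentrations. Viruses: resistance-mutation recombinants in NL4-3 backbone plus resistant clinical isolates.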

[8] = molecular target: HIV-1 IN-LEDGF/p75 interaction (Human immunodeficiency virus type 1 group M subtype B, UniProt P12497); test: biochemical
Description: as §2, §3

HIV-1 IN = molecular target: T1, HIV-1 IN (Human immunodeficiency virus type 1 group M subtype B, UniProt P12497); test: HTRF IN multimerization assay; format: biochemical; conditions: mean ± SD
T1 construct: made in house
Description: A key property of INLAIs is the ability to promote HIV-1 IN homo-multimerization ([39][–][42]). […] The maximal signal (plateau) in our IN aggregation assay corresponds to the highest HTRF signal increase under saturating INLAI concentration, relative to baseline level. Thus, MUT916, MUT884, MUT871, and MUT872 increased HIV-1 IN aggregation 3.7 to 4.4-fold, while BDM-2, BI-224436, and S-I-82 did so 5 to 6-fold (Table 1).

[9] = tested on: lab-adapted and clinical HIV-1 isolates; test: Infection assays in primary T CD4+ lymphocytes; format: cell-based; conditions: Human immunodeficiency virus 1, Lymphocyte
[10] = INSTI-resistant, NL4-3 background

## Cc1ccc(C2CC2)c(-c2ccc3c(c2C)CCCO3)c1[C@H](OC(C)(C)C)C(=O)O [MUT871]
NL4-3 HIV-1 strain; Human immunodeficiency virus 1, NL43, multiple-round infection, from dose response curves, read-out: EC90 NL4-3
  EC90: 4.6 ± 1.6 nM
NL4-3 HIV-1 strain; Human immunodeficiency virus 1, NL43, multiple-round infection, mean ± SD, n > 5, read-out: EC50 NL4-3
  EC50: 3.1 ± 1 nM
NL4-3 HIV-1 strain
  Selectivity index CC50/EC50 NL4-3: 14,838
[1]
  IC50: 32 ± 14 nM
[2]
  EC50 fold change compared to wild type NL4-3, A128T: 2
  EC50 fold change compared to wild type NL4-3, H171Q: 6
  EC50 fold change compared to wild type NL4-3, N222K: 3
  EC50 fold change compared to wild type NL4-3, T174I: 323
  EC50 fold change compared to wild type NL4-3, Y99H: 4
[3]
  EC50 ratio (single/multiple-round infection): 203
[3]; Human immunodeficiency virus 1, NL43, MT4, read-out: EC50 in single-round infection
  EC50: 630 ± 10 nM
HXB2 HIV-1 strain
  EC50: 1.4 ± 0.3 nM
[4]; IN 124/125 AA
  Fold change in EC50 relative to parental NL4-3, CAM2BBY (CRF02): 2
  Fold change in EC50 relative to parental NL4-3, E0836M4 (D): 2
  Fold change in EC50 relative to parental NL4-3, KER2008 (A): 1
  Fold change in EC50 relative to parental NL4-3, NP1525 (CRF01): 1
  Fold change in EC50 relative to parental NL4-3, NP1695 (CRF02): 3
  Fold change in EC50 relative to parental NL4-3, TZA125 (C): 1
[4]; IN 124/125 GA
  Fold change in EC50 relative to parental NL4-3, KSM4030 (A): 2
  Fold change in EC50 relative to parental NL4-3, vGA (C): 5
[4]; IN 124/125 NA
  Fold change in EC50 relative to parental NL4-3, 99ET14 (C): 2
  Fold change in EC50 relative to parental NL4-3, NP1538 (B): 2
  Fold change in EC50 relative to parental NL4-3, vNA_1 (B): 3
  Fold change in EC50 relative to parental NL4-3, vNA_2 (CRF02): 3
[4]; IN 124/125 NV
  Fold change in EC50 relative to parental NL4-3, vNV (B): 3
[4]; IN 124/125 SA
  Fold change in EC50 relative to parental NL4-3, vSA_1 (B): 4
  Fold change in EC50 relative to parental NL4-3, vSA_2 (CRF02): 3
[4]; IN 124/125 TA
  Fold change in EC50 relative to parental NL4-3, vTA_1 (B): 2
  Fold change in EC50 relative to parental NL4-3, vTA_2 (CRF02): 2
[5]
  CC50: 46000 ± 11000 nM
[6]; recombinant NL4-3, IN 124/125 AA
  Fold change in EC50 relative to parental NL4-3, AA: 1
[6]; recombinant NL4-3, IN 124/125 AM
  Fold change in EC50 relative to parental NL4-3, AM: 0.4
[6]; recombinant NL4-3, IN 124/125 AT
  Fold change in EC50 relative to parental NL4-3, AT: 1
[6]; recombinant NL4-3, IN 124/125 AV
  Fold change in EC50 relative to parental NL4-3, AV: 1
[6]; recombinant NL4-3, IN 124/125 GA
  Fold change in EC50 relative to parental NL4-3, GA: 3
[6]; recombinant NL4-3, IN 124/125 GT
  Fold change in EC50 relative to parental NL4-3, GT: 2
[6]; recombinant NL4-3, IN 124/125 NA
  Fold change in EC50 relative to parental NL4-3, NA: 2
[6]; recombinant NL4-3, IN 124/125 NT
  Fold change in EC50 relative to parental NL4-3, NT: 1
[6]; recombinant NL4-3, IN 124/125 NV
  Fold change in EC50 relative to parental NL4-3, NV: 1
[6]; recombinant NL4-3, IN 124/125 SA
  Fold change in EC50 relative to parental NL4-3, SA: 1
[6]; recombinant NL4-3, IN 124/125 ST
  Fold change in EC50 relative to parental NL4-3, ST: 1
[6]; recombinant NL4-3, IN 124/125 TA
  Fold change in EC50 relative to parental NL4-3, TA: 1
[6]; recombinant NL4-3, IN 124/125 TM
  Fold change in EC50 relative to parental NL4-3, TM: 0.3
[6]; recombinant NL4-3, IN 124/125 TV
  Fold change in EC50 relative to parental NL4-3, TV: 1
[7]; [10]
  Fold change in EC50 relative to NL4-3, E92Q: 1
  Fold change in EC50 relative to NL4-3, G140S: 1
  Fold change in EC50 relative to NL4-3, G140S/Q148H: 1
  Fold change in EC50 relative to NL4-3, N155H: 1
  Fold change in EC50 relative to NL4-3, Q148H: 1
  Fold change in EC50 relative to NL4-3, Y143R: 1
[7]; NRTI-resistant clone
  Fold change in EC50 relative to NL4-3, NLAY351717: 1
[7]; NRTI/NNRTI-resistant clone
  Fold change in EC50 relative to NL4-3, NLAY351753: 1
[7]; NRTI/NNRTIs group, NL4-3 background
  Fold change in EC50 relative to NL4-3, K103N/Y181C: 1
[7]; PI-resistant virus
  Fold change in EC50 relative to NL4-3, ARP-4595: 1
  Fold change in EC50 relative to NL4-3, ARP-4596: 1
  Fold change in EC50 relative to NL4-3, ARP-11801: 1
  Fold change in EC50 relative to NL4-3, ARP-11803: 1
  Fold change in EC50 relative to NL4-3, ARP-11807: 1
  Fold change in EC50 relative to NL4-3, ARP-11808: 1
[8]
  IC50: 14 ± 5 nM
HIV-1 IN; concentration for 50% maximum activation of multimerization
  AC50: 31 ± 20 nM
HIV-1 IN; maximum multimerization reached versus baseline
  IN multimerization Plateau: 440 ± 53%
[9]; read-out: EC50 33913N (B)
  EC50: 1.5 ± 0.6 nM
[9]; read-out: EC50 HXB2 (B)
  EC50: 1.8 ± 0.3 nM
[9]; read-out: EC50 KER2008 (A)
  EC50: 6.4 ± 1.3 nM
[9]; read-out: EC50 NL4-3 (B)
  EC50: 2.8 ± 0.5 nM
[9]; read-out: EC50 NP1525 (CRF01_AE)
  EC50: 3.5 ± 0.6 nM
[9]; read-out: EC50 NP1538 (B)
  EC50: 4 ± 2.3 nM
